Laboratory results from paper PMC7504770, “Mechanistic Insights into the Chaperoning of Human Lysosomal-Galactosidase Activity: Highly Functionalized Aminocyclopentanes and C-5a-Substituted Derivatives of 4-epi-Isofagomine” (Molecules, 2020).

Tests used:
[1] = biological target: T1, β-galactosidase from bovine liver (GH35) (Bos taurus, UniProt Q58D55); conditions: read-out: Ki Bovine liver (β-Gal) (GH35); cited from earlier work
T1 construct: Bovine liver β-galactosidase; from tissue; host or cells: bovine liver
T1 sequence (Q58D55 28-653): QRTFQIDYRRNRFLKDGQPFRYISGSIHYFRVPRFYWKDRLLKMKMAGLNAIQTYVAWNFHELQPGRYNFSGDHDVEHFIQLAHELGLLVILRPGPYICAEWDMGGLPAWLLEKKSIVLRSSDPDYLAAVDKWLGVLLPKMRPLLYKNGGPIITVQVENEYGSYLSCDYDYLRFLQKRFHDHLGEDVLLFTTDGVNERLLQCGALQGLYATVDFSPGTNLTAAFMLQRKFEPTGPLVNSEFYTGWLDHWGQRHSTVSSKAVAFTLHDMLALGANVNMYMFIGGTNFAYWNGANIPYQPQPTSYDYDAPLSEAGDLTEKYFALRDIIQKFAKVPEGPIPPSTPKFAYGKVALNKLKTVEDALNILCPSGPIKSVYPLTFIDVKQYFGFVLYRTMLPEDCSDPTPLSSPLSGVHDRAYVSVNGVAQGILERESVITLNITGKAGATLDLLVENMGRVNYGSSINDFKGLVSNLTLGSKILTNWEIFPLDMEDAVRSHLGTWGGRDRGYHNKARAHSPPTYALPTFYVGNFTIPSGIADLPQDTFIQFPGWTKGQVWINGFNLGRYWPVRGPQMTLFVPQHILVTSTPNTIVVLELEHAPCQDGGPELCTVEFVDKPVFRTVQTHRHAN

[2] = biological target: T2, β-glucosidase/β-galactosidase from Agrobacterium sp. (Abg, GH1) (Agrobacterium sp., UniProt P12614); conditions: read-out: Ki Abg (β-Glc/Gal) (GH1); cited from earlier work
T2 sequence (P12614 1-459): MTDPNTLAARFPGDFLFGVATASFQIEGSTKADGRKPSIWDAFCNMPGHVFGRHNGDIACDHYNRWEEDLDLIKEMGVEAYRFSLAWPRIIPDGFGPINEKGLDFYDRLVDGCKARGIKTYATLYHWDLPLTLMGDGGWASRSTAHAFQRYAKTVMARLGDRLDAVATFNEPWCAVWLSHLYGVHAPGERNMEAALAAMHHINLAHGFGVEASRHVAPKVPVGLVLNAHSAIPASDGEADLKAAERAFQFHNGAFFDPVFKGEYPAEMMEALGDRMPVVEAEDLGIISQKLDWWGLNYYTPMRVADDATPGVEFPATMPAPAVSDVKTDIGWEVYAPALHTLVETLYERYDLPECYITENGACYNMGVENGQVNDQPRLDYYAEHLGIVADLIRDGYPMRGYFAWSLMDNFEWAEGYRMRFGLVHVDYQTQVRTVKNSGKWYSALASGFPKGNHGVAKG

[3] = biological target: lac Z β-galactosidase from E. coli (GH2) (Escherichia coli, UniProt P00722); conditions: read-out: Ki E. coli (β-Gal) (GH2); cited from earlier work
Chain of lac Z β-galactosidase from E. coli (GH2) (P00722 2-1024): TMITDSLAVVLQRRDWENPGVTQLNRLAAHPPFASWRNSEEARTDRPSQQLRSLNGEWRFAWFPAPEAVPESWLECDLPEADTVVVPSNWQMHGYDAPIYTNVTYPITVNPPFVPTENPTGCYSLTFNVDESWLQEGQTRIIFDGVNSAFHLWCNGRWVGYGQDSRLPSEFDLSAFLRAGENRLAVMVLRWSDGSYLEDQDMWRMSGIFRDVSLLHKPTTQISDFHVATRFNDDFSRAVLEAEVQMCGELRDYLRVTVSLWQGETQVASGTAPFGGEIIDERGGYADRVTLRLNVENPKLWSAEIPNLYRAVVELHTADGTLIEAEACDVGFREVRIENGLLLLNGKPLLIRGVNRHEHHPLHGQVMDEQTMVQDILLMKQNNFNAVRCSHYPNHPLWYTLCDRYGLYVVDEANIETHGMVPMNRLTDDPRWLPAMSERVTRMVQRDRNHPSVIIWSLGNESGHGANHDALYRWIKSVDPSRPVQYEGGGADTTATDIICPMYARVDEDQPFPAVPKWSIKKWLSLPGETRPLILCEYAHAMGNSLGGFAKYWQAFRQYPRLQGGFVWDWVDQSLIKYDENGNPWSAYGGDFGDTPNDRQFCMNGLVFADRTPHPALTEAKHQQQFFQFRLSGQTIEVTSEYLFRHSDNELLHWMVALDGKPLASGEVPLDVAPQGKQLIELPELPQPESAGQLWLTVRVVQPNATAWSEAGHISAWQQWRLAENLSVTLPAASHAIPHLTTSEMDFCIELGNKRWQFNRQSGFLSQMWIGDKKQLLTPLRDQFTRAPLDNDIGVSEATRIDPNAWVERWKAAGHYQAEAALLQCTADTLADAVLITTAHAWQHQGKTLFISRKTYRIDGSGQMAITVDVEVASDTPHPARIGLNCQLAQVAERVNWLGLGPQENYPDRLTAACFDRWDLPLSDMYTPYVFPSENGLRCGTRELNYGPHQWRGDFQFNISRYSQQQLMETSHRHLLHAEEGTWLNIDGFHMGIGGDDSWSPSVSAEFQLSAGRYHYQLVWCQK

[4] = biological target: T3, Fabrazyme = commercial recombinant lysosomal α-galactosidase (GH27) (Homo sapiens, UniProt P06280); conditions: read-out: Ki Fabrazyme (α-Gal) (GH27); cited from earlier work
T3 construct: purchased
T3 sequence (P06280 32-429): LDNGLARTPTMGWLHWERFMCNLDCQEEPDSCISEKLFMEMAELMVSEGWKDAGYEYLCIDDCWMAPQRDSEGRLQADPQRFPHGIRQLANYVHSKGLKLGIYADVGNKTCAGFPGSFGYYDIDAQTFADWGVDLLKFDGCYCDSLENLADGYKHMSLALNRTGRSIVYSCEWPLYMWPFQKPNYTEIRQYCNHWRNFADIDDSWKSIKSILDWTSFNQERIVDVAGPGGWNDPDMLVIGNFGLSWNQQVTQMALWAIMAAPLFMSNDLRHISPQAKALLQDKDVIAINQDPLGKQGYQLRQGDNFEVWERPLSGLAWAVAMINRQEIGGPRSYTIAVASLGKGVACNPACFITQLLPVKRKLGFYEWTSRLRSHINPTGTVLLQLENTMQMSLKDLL

[5] = biological target: T4, recombinant human lysosomal β-glucocerebrosidase (GCase, GH30) (Homo sapiens, UniProt P04062); conditions: read-out: Ki GCase (β-Glc) (GH30); cited from earlier work
T4 sequence (P04062 40-536): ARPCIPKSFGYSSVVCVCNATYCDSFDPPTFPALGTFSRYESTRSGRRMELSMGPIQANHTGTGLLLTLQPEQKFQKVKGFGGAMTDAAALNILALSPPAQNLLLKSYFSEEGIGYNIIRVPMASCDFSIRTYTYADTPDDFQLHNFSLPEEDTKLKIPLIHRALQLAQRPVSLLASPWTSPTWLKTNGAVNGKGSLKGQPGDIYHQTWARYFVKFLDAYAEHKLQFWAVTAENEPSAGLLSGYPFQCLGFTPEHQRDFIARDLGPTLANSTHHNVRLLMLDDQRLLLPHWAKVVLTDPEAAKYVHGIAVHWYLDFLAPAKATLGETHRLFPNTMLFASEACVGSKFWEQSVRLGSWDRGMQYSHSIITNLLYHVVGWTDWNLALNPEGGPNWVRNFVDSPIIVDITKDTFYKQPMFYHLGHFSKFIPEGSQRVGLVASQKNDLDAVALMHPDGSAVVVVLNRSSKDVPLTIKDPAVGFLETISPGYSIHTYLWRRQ

[6] = system: human skin fibroblasts (R201C); experiment: Cell viability and growth of treated fibroblasts; format: cell-based; conditions: for cell growth at higher concentrations: concentrations higher than 10 µM, over the incubation time; for cell viability at more than 100 µM: concentrations of more than 100 µM; for influence on cell viability: incubation of the cells up to 10 µM
Experimental: Cell lines from one GM1-Gangliosidosis-patient (R201C) and one WT, were exposed to compounds 22, 31, and 37, for evaluation of their chaperone effects.
Human skin fibroblasts were grown in minimal essential medium (MEM) with Earle’s Salts (Sigma Aldrich, St. Louis, MO, USA) containing 10% fetal bovine serum, 400 µM L-glutamine, and 50 µg/mL gentamycin at 37 °C and 5% CO2. All cells used in this study were between the third and nineteenth passages.
Fibroblasts were grown to semi-confluency in 6-well plates. Particular chaperone was added to the culture medium at following concentrations: 100–0.02 µmol. Cells were incubated for four additional days at 37 °C. Cells were harvested by scraping and prepared for β-galactosidase and β-hexosaminidase assays as described above.

For CCCCCCCCNC1C=C(CO)C(O)C(O)C1O (stereo not drawn) [Compound 1, N-octyl-epi-valienamine], the Ki [1] is given as 870 nM.
For CN(C)c1cccc2c(S(=O)(=O)NCCCCCC[C@@H]3NC[C@@H](O)[C@@H](O)[C@H]3CO)cccc12 [Compound 14], the Ki [2] is listed as 17.5 nM, the Ki [3] is listed as 2.1 nM and the Ki [1] is listed as 1.4 nM. The Ki [4] was greater than 1000 µM and the Ki [5] was 1200 nM.
In the case of CN(C)c1cccc2c(S(=O)(=O)NCCCCCCN[C@H]3[C@H](O)[C@@H](O)[C@@H](O)[C@H]3CO)cccc12 [Compound 17], the Ki [2] is given as 1.2 nM, the Ki [3] is given as 10.1 nM and the Ki [4] is given as 238 µM. For the same compound, the Ki [5] was 19.3 nM.
For CN(C)c1cccc2c(S(=O)(=O)NCCCCCCN[C@H]3C[C@@H](O)[C@@H](O)[C@H]3CO)cccc12 [Compound 31, (1R,2S,3R,4S)-3-Hydroxymethyl-4-(6′-dansylaminohexylamino)cyclopentane-1,2-diol], the “cell growth at higher concentrations” value [6] was “complete arrest of cell growth”, the “cell viability at more than 100 µM” value [6] was “dramatic loss” and the “influence on cell viability” value [6] was “no notable influence”.
For CN(C)c1cccc2c(S(=O)(=O)NCCCCCCN[C@H]3[C@H](F)[C@@H](O)[C@@H](O)[C@H]3CO)cccc12 [Compound 37, (1S,2S,3S,4R,5R)-4-(6′-Dansylaminohexyl)amino-3-fluoro-5-hydroxymethylcyclopentane-1,2-diol], the “cell growth at higher concentrations” value [6] was “complete arrest of cell growth”, the “cell viability at more than 100 µM” value [6] was “dramatic loss” and the “influence on cell viability” value [6] was “no notable influence”.
